The values below come from PubChem BioAssay AID652002 (Sanford-Burnham Center for Chemical Genomics, 2013).

Test [1] is described as follows: compound enhancement of TRAIL-induced cell killing – NB7 cells plus caspase-8, luminescence, panel, dose response (AID 652002). As to conditions: NB7 neuroblastoma +caspase-8, no TRAIL, compound-alone cytotoxicity counter-screen, luminescence viability, NB7+Caspase-8.
The target in a further test is NB7+Caspase-8. The test is described as above. As to conditions: NB7 neuroblastoma +caspase-8, TRAIL sensitization, luminescence viability, with TRAIL.
Test [2] concerns the target Tumor necrosis factor receptor superfamily member 10B (Homo sapiens) (UniProt O14763). The test is described as above. As to conditions: NB7 neuroblastoma +caspase-8, TRAIL sensitization, luminescence viability; NB7+Caspase-8; with TRAIL, mean of runs.
Setting [3] is: run 1, single replicate panel EC50.
The mark [4] stands for this setting: run 2, single replicate panel EC50.

Calls of active or inactive are those of the source. The rule behind the calls is not given here. Some results are limits rather than exact numbers.

Chain of Tumor necrosis factor receptor superfamily member 10B (Homo sapiens) (O14763 whole entry, looked up): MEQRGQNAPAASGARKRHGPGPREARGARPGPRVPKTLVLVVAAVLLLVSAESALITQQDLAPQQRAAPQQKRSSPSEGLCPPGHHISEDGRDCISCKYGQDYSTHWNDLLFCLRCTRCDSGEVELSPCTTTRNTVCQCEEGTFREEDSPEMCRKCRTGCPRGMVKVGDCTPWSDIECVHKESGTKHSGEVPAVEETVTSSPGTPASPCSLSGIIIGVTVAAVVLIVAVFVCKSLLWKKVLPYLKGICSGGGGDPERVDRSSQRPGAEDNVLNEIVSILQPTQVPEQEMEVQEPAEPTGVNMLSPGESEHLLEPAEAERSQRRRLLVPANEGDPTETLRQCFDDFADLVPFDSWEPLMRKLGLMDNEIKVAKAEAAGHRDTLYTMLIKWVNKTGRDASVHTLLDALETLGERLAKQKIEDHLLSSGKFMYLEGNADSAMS

As to `Cc1cc(N/N=C/c2ccccc2)nc(NCc2ccccc2)n1`, the EC50 in test [1] (mean of runs) was > 12.5 µM (inactive); in test [1] (setting [3]), > 12.5 µM; in test [1] (setting [4]), > 12.5 µM; on NB7+Caspase-8 (setting [3]), > 12.5 µM; on NB7+Caspase-8 (setting [4]), 10.9 µM. Also, the EC50 entry in test [2] is “inactive”.

As for `CCOC(=O)c1cnc2c(-c3ccccc3)cnn2c1N`, the EC50 in test [1] (mean of runs) is > 12.5 µM (inactive); in test [1] (setting [3]) it was > 12.5 µM; in test [1] (setting [4]), > 12.5 µM; at NB7+Caspase-8 (setting [3]), > 12.5 µM; at NB7+Caspase-8 (setting [4]), > 12.5 µM; in test [2], > 12.5 µM (inactive).

Regarding `COc1ccc(/C(C)=N/Nc2nncc3ccccc23)cc1`, the EC50 in test [1] (mean of runs) was > 12.5 µM (inactive); in test [1] (setting [3]), > 12.5 µM; in test [1] (setting [4]), > 12.5 µM; on NB7+Caspase-8 (setting [3]), 7.33 µM; at NB7+Caspase-8 (setting [4]), > 12.5 µM. Also, the EC50 entry in test [2] is “inactive”.

Take `CCOc1ccc(-c2nnc(-c3ccccc3)o2)cc1`: the EC50 was > 12.5 µM (inactive) in test [1] (mean of runs); > 12.5 µM in test [1] (setting [3]); > 12.5 µM in test [1] (setting [4]); > 12.5 µM on NB7+Caspase-8 (setting [3]); 10.7 µM at NB7+Caspase-8 (setting [4]). Moreover, the EC50 result in test [2] was “inactive”.

`CC(C)C[C@H](NC(=O)c1nc[nH]c1C(=O)N[C@@H](CC(C)C)C(=O)OCc1ccccc1)C(=O)OCc1ccccc1`: the EC50 in test [1] (mean of runs) was > 12.5 µM (inactive); in test [1] (setting [3]), > 12.5 µM; in test [1] (setting [4]), > 12.5 µM; on NB7+Caspase-8 (setting [3]), > 12.5 µM; on NB7+Caspase-8 (setting [4]), > 12.5 µM; in test [2] it was > 12.5 µM (inactive).

For the compound `CC1(C)N=C(N)N=C(N)N1c1ccc(CCCCc2ccccc2)cc1`, the EC50 result in test [1] (mean of runs) is “inactive”. Further, the EC50 was > 12.5 µM in test [1] (setting [3]); < 0.39 µM in test [1] (setting [4]); < 0.39 µM on NB7+Caspase-8 (setting [3]); < 0.391 µM at NB7+Caspase-8 (setting [4]); < 0.39 µM (inactive) in test [2].

Take `Cc1nc2cc(NC(=O)Nc3cccc([N+](=O)[O-])c3)ccc2n1C`: the EC50 is > 12.5 µM (inactive) in test [1] (mean of runs); > 12.5 µM in test [1] (setting [3]); > 12.5 µM in test [1] (setting [4]); > 12.5 µM on NB7+Caspase-8 (setting [3]); 6.56 µM at NB7+Caspase-8 (setting [4]). For the same compound, the EC50 result in test [2] is “inactive”.

As to `c1ccc(-c2cnc(-c3ccccn3)nn2)cc1`, the EC50 result in test [1] (mean of runs) and in test [2] was “inactive” throughout. The half-maximal effective concentration (EC50) is 5.74 µM in test [1] (setting [3]), 10 µM in test [1] (setting [4]), > 12.5 µM on NB7+Caspase-8 (setting [3]) and 5.78 µM on NB7+Caspase-8 (setting [4]).

In the case of `Fc1ccc(-c2cnn3c(-c4ccncc4)ccnc23)cc1`, the EC50 in test [1] (mean of runs) is > 12.5 µM (inactive); in test [1] (setting [3]) it was > 12.5 µM; in test [1] (setting [4]) it was > 12.5 µM; at NB7+Caspase-8 (setting [3]), > 12.5 µM; on NB7+Caspase-8 (setting [4]) it was > 12.5 µM; in test [2] it was > 12.5 µM (inactive).

As for `Cc1ccc(S(=O)(=O)Nc2ccccc2C(=O)Nc2nc(-c3ccc(F)cc3)cs2)cc1`, the EC50 result in test [1] (mean of runs) and in test [2] was “inactive” throughout. In addition, the half-maximal effective concentration (EC50) was > 12.5 µM in test [1] (setting [3]), 8.36 µM in test [1] (setting [4]), > 12.5 µM on NB7+Caspase-8 (setting [3]) and 9.9 µM on NB7+Caspase-8 (setting [4]).

`CCCCCc1cc(=O)oc2c(C(CCN(CC)CC)c3cc(OC)c(OC)c(OC)c3)c(OC)cc(OC)c12` (stereo not drawn): the EC50 in test [1] (mean of runs) was > 12.5 µM (inactive); in test [1] (setting [3]), > 12.5 µM; in test [1] (setting [4]), > 12.5 µM; on NB7+Caspase-8 (setting [3]) it was > 12.5 µM; on NB7+Caspase-8 (setting [4]) it was 10.3 µM. Besides, the EC50 entry in test [2] is “inactive”.

Consider `Cc1ccc2c(c1)C(=NC1CCCCC1)c1cc3ccccc3nc1-2`, for which the EC50 in test [1] (mean of runs) is > 12.5 µM (inactive); in test [1] (setting [3]), > 12.5 µM; in test [1] (setting [4]) it was > 12.5 µM; on NB7+Caspase-8 (setting [3]), > 12.5 µM; on NB7+Caspase-8 (setting [4]), > 12.5 µM; in test [2], > 12.5 µM (inactive).

Regarding `CC(C)CCn1cnc2c([nH]c3cccc(Cl)c32)c1=O`, the EC50 in test [1] (mean of runs) was > 12.5 µM (inactive); in test [1] (setting [3]), > 12.5 µM; in test [1] (setting [4]), > 12.5 µM; at NB7+Caspase-8 (setting [3]) it was > 12.5 µM; on NB7+Caspase-8 (setting [4]) it was > 12.5 µM; in test [2], > 12.5 µM (inactive).

As to `COc1ccc(-c2nnc(SCC(=O)c3[nH]c(C)c(C(C)=O)c3C)o2)cc1`, the EC50 in test [1] (mean of runs) was > 12.5 µM (inactive); in test [1] (setting [3]), > 12.5 µM; in test [1] (setting [4]), > 12.5 µM; on NB7+Caspase-8 (setting [3]), > 12.5 µM; on NB7+Caspase-8 (setting [4]), > 12.5 µM; in test [2], > 12.5 µM (inactive).

In the case of `Cn1nnc(NC(=O)c2ccc(C(C)(C)C)cc2)n1`, the EC50 result in test [1] (mean of runs) and in test [2] was “inactive” each time. The EC50 in test [1] (setting [3]) is > 12.5 µM; in test [1] (setting [4]), 5.83 µM; at NB7+Caspase-8 (setting [3]), > 12.5 µM; on NB7+Caspase-8 (setting [4]) it was 5.01 µM.

Turning to `Cc1ccc2c(c1)-c1nc3ccccc3cc1C2=NC1CCCCC1`, the EC50 was > 12.5 µM (inactive) in test [1] (mean of runs); > 12.5 µM in test [1] (setting [3]); > 12.5 µM in test [1] (setting [4]); > 12.5 µM on NB7+Caspase-8 (setting [3]); 7.45 µM on NB7+Caspase-8 (setting [4]). Further, the EC50 result in test [2] was “inactive”.

In the case of `COc1ccc(OCC(=O)N/N=C/C=C/c2ccccc2)cc1`, the EC50 result in test [1] (mean of runs) and in test [2] was “inactive” in each case. In addition, the half-maximal effective concentration (EC50) in test [1] (setting [3]) is 10.3 µM; in test [1] (setting [4]) it was > 12.5 µM; at NB7+Caspase-8 (setting [3]), > 12.5 µM; on NB7+Caspase-8 (setting [4]), 1.96 µM.

Turning to `O=C(NC(=O)c1ccccc1)Nc1ccccc1`, the EC50 was > 12.5 µM (inactive) in test [1] (mean of runs); > 12.5 µM in test [1] (setting [3]); > 12.5 µM in test [1] (setting [4]); > 12.5 µM on NB7+Caspase-8 (setting [3]); > 12.5 µM at NB7+Caspase-8 (setting [4]); > 12.5 µM (inactive) in test [2].

For `Cc1cccc(CC(=O)Nc2cc(C)c3c(=O)oc4ccccc4c3n2)c1`, the EC50 in test [1] (mean of runs) was > 12.5 µM (inactive); in test [1] (setting [3]), > 12.5 µM; in test [1] (setting [4]) it was > 12.5 µM; on NB7+Caspase-8 (setting [3]), > 12.5 µM; at NB7+Caspase-8 (setting [4]) it was > 12.5 µM; in test [2] it was > 12.5 µM (inactive).

On to `O=C(Nc1ccc2[nH]ccc2c1)c1cccs1`, for which the EC50 result in test [1] (mean of runs) and in test [2] was “inactive” each time. Also, the EC50 in test [1] (setting [3]) came out at 7.12 µM; in test [1] (setting [4]) it was 4.71 µM; on NB7+Caspase-8 (setting [3]), 3.97 µM; at NB7+Caspase-8 (setting [4]) it was 5.19 µM.

In the case of `O=C(Nc1ccc(Br)cc1F)c1ccc2c(c1)OCCO2`, the EC50 entry in test [1] (mean of runs) and in test [2] was “inactive” throughout. The EC50 in test [1] (setting [3]) is > 12.5 µM; in test [1] (setting [4]), 11.2 µM; at NB7+Caspase-8 (setting [3]) it was > 12.5 µM; at NB7+Caspase-8 (setting [4]) it was 12.5 µM.

For the compound `Cc1ccc(NC(=O)CSc2nc3ccc(Nc4nc(N5CCOCC5)nc(N5CCOCC5)n4)cc3s2)cc1`, the EC50 in test [1] (mean of runs) was > 12.5 µM (inactive); in test [1] (setting [3]), > 12.5 µM; in test [1] (setting [4]) it was > 12.5 µM; on NB7+Caspase-8 (setting [3]) it was > 12.5 µM; on NB7+Caspase-8 (setting [4]), > 12.5 µM; in test [2], > 12.5 µM (inactive).

For `CN(C(=O)COC(=O)c1cnc(Cl)c(Cl)c1)C1CCCCC1`, the EC50 in test [1] (mean of runs) was > 12.5 µM (inactive); in test [1] (setting [3]), > 12.5 µM; in test [1] (setting [4]), > 12.5 µM; at NB7+Caspase-8 (setting [3]), > 12.5 µM; on NB7+Caspase-8 (setting [4]), > 12.5 µM; in test [2] it was > 12.5 µM (inactive).

What is called EC50 is the concentration needed to bring the measured effect to its halfway point.
